Experiments:
[1] = test system: Enterococcus faecalis PIU 1967; test: Assay A: in vitro antibacterial activity, agar dilution MIC; assay type: cell-based; details: Table 1, Assay A, BHI agar, 35-37° C., about 20 to 24 hours; code B = Enterococcus faecalis PIU 1967; unit assumed
Experimental: (§1) Assay A. Determination of Biological Activity In Vitro Assay of Antibacterial Activity
(§2) Representative compounds of the invention were assayed in vitro for antibacterial activity. Twelve petri dishes containing successive aqueous dilutions of the test compound mixed with sterilized Brain Heart Infusion (BHI) agar (Difco 0418-01-5) (10 mL) were prepared. Each plate was inoculated with 1:100 (or 1:10 for slow-growing strains, such as Micrococcus and Streptococcus) dilutions of up to 32 different microorganisms using a Steers replicator block. The inoculated plates were incubated at 35-37° C. for about 20 to about 24 hours. In addition, a control plate with BHI agar and no test compound was prepared and incubated at the beginning and end of each test.
(§3) An additional plate containing a compound having known susceptibility patterns for the organisms being tested and belonging to the same antibiotic class as the test compound was also prepared and incubated as a further control and to provide test-to-test comparability. Ciprofloxacin was used for this purpose.
(§4) After incubation, each plate was visually inspected. The minimum inhibitory concentration (MIC) was defined as the lowest concentration of drug yielding no growth, a slight haze, or sparsely isolated colonies on the inoculum spot as compared to the growth control.

[2] = test system: Escherichia coli JUHL; test: as above; assay type: cell-based; details: Table 1, Assay A, BHI agar, 35-37° C., about 20 to 24 hours; code D = Escherichia coli JUHL; unit assumed
Experimental: as §1, §2, §3, §4

[3] = test system: Haemophilus influenzae DILL AMP R; test: as above; assay type: cell-based; details: Table 1, Assay A, BHI agar, 35-37° C., about 20 to 24 hours; code E = Haemophilus influenzae DILL AMP R; unit assumed
Experimental: as §1, §2, §3, §4

[4] = test system: Moraxella catarrahalis 2604; test: as above; assay type: cell-based; details: Table 1, Assay A, BHI agar, 35-37° C., about 20 to 24 hours; code C = Moraxella catarrahalis 2604; unit assumed
Experimental: as §1, §2, §3, §4

[5] = test system: Staphylococcus aureus ATCC 6538P; test: as above; assay type: cell-based; details: Table 1, Assay A, BHI agar, 35-37° C., about 20 to 24 hours; code A = Staphylococcus aureus ATCC 6538P; unit assumed
Experimental: as §1, §2, §3, §4

[6] = test system: Streptococcus pneumoniae ATCC 6303; test: as above; assay type: cell-based; details: Table 1, Assay A, BHI agar, 35-37° C., about 20 to 24 hours; code F = Streptococcus pneumoniae ATCC 6303; unit assumed
Experimental: as §1, §2, §3, §4

COc1c(-c2cc3c(s2)CCCC3N)ccc2c(=O)c(C(=O)O)cn(C3CC3)c12.Cl (stereo not drawn) [Example 40, 7-(4-amino-4,5,6,7-tetrahydro-1-benzothien-2-yl)-1-cyclopropyl-8-methoxy-4-oxo-1,4-dihydro-3-quinolinecarboxylic acid hydrochloride]
Antibacterial Activity (MIC's), B [1]: 0.1 µg/mL
Antibacterial Activity (MIC's), D [2]: 0.2 µg/mL
Antibacterial Activity (MIC's), E [3]: 0.06 µg/mL
Antibacterial Activity (MIC's), C [4]: 0.1 µg/mL
Antibacterial Activity (MIC's), A [5]: 0.02 µg/mL
Antibacterial Activity (MIC's), F [6]: 0.125 µg/mL
melting point: 219 to 222 °C

Cl.O=C(O)c1cn(C2CC2)c2nc(-c3cc4c(s3)CNCC4)c(F)cc2c1=O [Example 9, 1-cyclopropyl-6-fluoro-4-oxo-7-(4,5,6,7-tetrahydrothieno(2,3-c)pyridin-2-yl)-1,4-dihydro[1,8]naphthyridine-3-carboxylic acid hydrochloride]
Antibacterial Activity (MIC's), B [1]: 0.2 µg/mL
Antibacterial Activity (MIC's), D [2]: 0.1 µg/mL
Antibacterial Activity (MIC's), E [3]: 0.06 µg/mL
Antibacterial Activity (MIC's), C [4]: 0.1 µg/mL
Antibacterial Activity (MIC's), A [5]: 0.1 µg/mL
Antibacterial Activity (MIC's), F [6]: 0.125 µg/mL
melting point: 290 to 291 °C

Br.CC1NCCc2sc(-c3ccc4c(=O)c(C(=O)O)cn(C5CC5)c4c3OC(F)F)cc21 (stereo not drawn) [Example 20, 1-cyclopropyl-8-(difluoromethoxy)-7-(4-methyl-4,5,6,7-tetrahydrothieno[3,2-c]pyridin-2-yl)-4-oxo-1,4-dihydro-3-quinolinecarboxylic acid hydrobromide]
Antibacterial Activity (MIC's), B [1]: 0.78 µg/mL
Antibacterial Activity (MIC's), D [2]: 0.78 µg/mL
Antibacterial Activity (MIC's), E [3]: 0.25 µg/mL
Antibacterial Activity (MIC's), C [4]: 0.78 µg/mL
Antibacterial Activity (MIC's), A [5]: 0.2 µg/mL
Antibacterial Activity (MIC's), F [6]: 1 µg/mL
melting point: 176 to 180 °C (dec.)

Source: patent US20020049223A1, “Quinoline and naphthyridine carboxylic acid antibacterials” (priority 1999, published 2002)
